According to patent US4826984A, “Heteroarotinoid compounds as anticancer agents” (The Board of Regents for the Oklahoma Agricultural and …, priority 1987, dated 1989):
Several values for one entry are separate records, joined by “and”; a condition that tells them apart may be missing. Equal values may be shown once.

Experiments:
[1] = tested on: tracheal organ cultures obtained from vitamin A deficient hamsters; experiment: tissue or blood; type: cell-based, hamster
Description: An evaluation of the anticancer properties of the heteroarotinoids was made via the standard hamster tracheal organ culture bioassay (see D. L. Newton, W. R. Henderson, and M. B. Sporn in Structure-Activity Relationships of Retinoids, National Cancer Institute, Revised Edition, Feb. 26, 1980; and D. L. Newton, W. R. Henderson, and M. B. Sporn, Cancer Research, 40, 3413 [1980]). The assay involves the ability of a test compound in vitro to reverse keratinization in tracheal organ cultures obtained from vitamin A deficient hamsters. The relationship of vitamin A deficient epithelial tissues and precancerous lesions is well known (see C. E. Orfanos, Retinoids-Advances in Basic Research and Therapy, Springer-Verlag, New York, 1981). For example, the addition of retinoids can reverse the anaplastic epithelial lesions induced in prostate glands by chemical carcinogens (see D. P. Chopra and L. J. Wilkoff, Proc. Am Assoc. Cancer Research, 16, 35 (1975); and I. Lasnitzki, British Journal of Cancer, 9, 434 [1955]). The basic procedure for the bioassay involving the vitamin A deficient hamster tracheal organ culture is presented below with the results obtained for some of the compositions.
The harvested tracheas were cultured in a serum-free medium and were gassed with 50% O2, 45% N2, and 5% CO2. The serum-free culture consists of CMRL Medium 1066 with crystalline bovine insulin (1.0 μg/mL), hydrocortisone hemisuccinate (0.1 μg/mL), glutamine (2 mM), pencillin (100 inits/mL), and streptomycin (100 μg/mL). The cultures were incubated for 3 days at 35°-36° C. After incubation in the retinoid-free medium, some of the tracheas were harvested. Most of the specimens had significant squamous metaplasia. The remaining cultures were divided into 3 groups. The first group was treated with the experimental heteroarotinoid in spectrograde dimethyl sulfoxide (DMSO) at concentrations of 10^-8 M, 10^-9 M, and 10^-10 M (final concentration of DMSO in culture medium was 0.1%). […] A final culture was prepared with only DMSO present.
The culture medium was changed three times per week for 10 days. At the end of that time, all tracheas were harvested and fixed in a 4% (or sometimes 10%) formaldehyde-1% glutaraldehyde solution. The material was then embedded in paraffin and cross-sections of the tracheas were examined under a microscope for the presence of keratin or keratohyaline granules. A synthetic retinoid was judged as having good anticancer activity if neither keratin nor keratohyaline granules were present or if only keratohyaline granules were […]. […] Sloughing of the cells in the culture studies was common with the toxic all trans-retinotic acid but was not observed with the heteroarotinoids in this work.
^a ED50 (M) is the dose for reversal of keratinization in
epithelium of 50% of retinoiddeficient hamster tracheas in organ culture.

[2] = tested on: ornithine decarboxylase (ODC); experiment: suppression of TPA induced ornithine decarboxylase (ODC) in mouse skin; type: in vivo
Protocol: In the ODC assay, either 13-cis-retinoic acid or trans-retinoic acid was employed. The following Table summarizes the result of the ODC assays.
In the screening tests of the Table, the selected retinoids in 0.2 ml of acetone were applied 1 hour before the application of 10 nmole of TPA to the shaved backs of mice; the mice where then sacrificed for ODC assay 5 hours after TPA treatment. Epidermus was separated, homogenized, and centrifuged at 30,000×g. Soluble epidermal ODC activity was assayed. The retinoids were evaluated in three independent experiments (3 groups of mice with 3 mice per group) and the results from the experiments were normalized (% inhibition) for comparison. […] Which standard is used appears to be relatively unimportant for determining activity in the assay, but the data presented in the Table identifies the standard for sake of clarity and accuracy of presentation. Thus, the presence of the heteroatom in these arotinoids has not eliminated biological activity. […] Consequently, the nature of the terminus group is also important.

[3] = tested on: tracheal organ cultures obtained from vitamin A deficient hamsters; settings: value stated for the standard in the method; read-out: ED50 (the source's name); cited from earlier work
[4] = single large doses; cited from earlier work
[5] = 34 nmol retinoid + TPA, third experiment (standard trans-retinoic acid)

CC1=C(/C=C/C(C)=C/C=C/C(C)=C/C(=O)O)C(C)(C)CCC1 [trans-retinoic acid, all trans-retinoic acid, reference compound]
Sloughing of the cells in the culture studies [1]: common | % Active ([1]; 10^-11 M): 50.0% and 41.7% and 53.8% | % Active ([1]; 10^-12 M): 16.7% and 33.3% and 23.1% | % Active ([1]; concentration printed 11^-11 M): 50.0% | % Active ([1]; concentration printed 12^-12 M): 23.1% | % of Inhibition as Compared to Control [2, 5]: 81% | ODC Activity [2, 5]: 1.0 ± 0.1 nmol CO2 /60 min/mg protein | relative activities in suppressing TPA induction of ODC ([2]; trans-retinoic acid as a standard): trans-retinoic acid >24>35>36 | EC50 [3]: 0.01 nM | acute toxicity [4]: acutely toxic in single large doses
